Our source for the TGI and GI50 values is PubChem BioAssay (NCI).

Holding throughout (test): growth of human tumour cells (NCI), 48 h
For experiment [1], the system named is M19-MEL melanoma.
Experiment [2] deals with U251 CNS.
Experiment [3] relates to KM20L2 colon.
Experiment [4] concerns DLD-1 colon.
Experiment [5] concerns SNB-75 CNS.
Experiment [6] concerns NCI/ADR-RES ovarian.
Experiment [7] concerns SK-OV-3 ovarian.
The subject of experiment [8] is KM12 colon.
The subject of experiment [9] is M14 melanoma.
Experiment [10] has as its system PC-3 prostate.
For experiment [11], the system named is MDA-MB-435.
For experiment [12], the system named is SNB-78 CNS.

Molecules are shown by their SMILES. Where “and” joins values, the source holds several entries; their conditions need not be identical. Equal values may be shown once.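 Following 48 hours of exposure in 96-well plates, responses at five concentrations were used to interpolate endpoints linearly. GI50 = concentration required for 50% inhibition of growth. TGI: total growth inhibition.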 Where only a bound is given, the exact number is not on record here.

`N#C/C(=C\c1ccc2[nH]ccc2c1)C(=O)NCCCCNC(=O)/C(C#N)=C/c1ccc2[nH]ccc2c1`: the TGI in experiment [1] was above 100 µM; in experiment [2], above 31.6 µM; in experiment [3] it was above 100 µM; in [4], above 100 µM; in [5] it was above 31.6 µM; in [6], above 10 µM. The TGI in [7] is above 31.6 µM; in [8] it was above 31.6 µM; in experiment [9] it was above 31.6 µM; in experiment [10], above 10 µM; in experiment [11] it was above 10 µM; in [12], above 100 µM.
As to `[N-]=[N+]=CC(=O)CCC(N)C(=O)O` (centres undefined), the TGI was above 138 µM in [1]; above 250 µM in [2]; above 250 µM in experiment [3]; above 170 µM in experiment [4]; 191 µM in experiment [5]; above 245 µM in experiment [6]. Also, the TGI was 34.3 µM in experiment [7]; above 250 µM in experiment [8]; above 250 µM in [9]; above 250 µM in [10]; above 250 µM in experiment [11]; above 74.4 µM in experiment [12]. The GI50 in experiment [2] was 6.59 µM; in experiment [5] it was 39.4 µM; in [8], 3.14 µM; in experiment [9] it was 10.6 µM; in [10] it was 29.8 µM; in experiment [11], 7.2 µM.
For `O=c1c(Cc2ccccc2)c(O)cc2n1CCC2`, the TGI in experiment [1], in [2], in experiment [3], in experiment [4], in experiment [5] and in experiment [7] was above 100 µM each time. The TGI in experiment [8], in [9] and in experiment [12] was above 100 µM throughout.
In the case of `Cc1c(C)c([N+](=O)[O-])c2c(c1N)C(=O)c1ccccc1C2=O`, the TGI in experiment [1], in experiment [2], in experiment [3], in [4], in experiment [5] and in [7] was above 100 µM throughout. Also, the TGI in experiment [8], in [9] and in experiment [12] was above 100 µM in each case.
As to `O=c1[nH]ccc(CNC23CC4CC(CC(C4)C2)C3)c1O`, the TGI in [1], in [2], in [3], in experiment [4], in [5] and in [7] was above 100 µM throughout. Besides, the TGI in experiment [8], in experiment [9] and in experiment [12] was above 100 µM in each case.
Turning to `O=C(c1ccccc1)C1N=NN(Cc2ccccc2[N+](=O)[O-])C1C(=O)c1ccccc1` (centres undefined), the TGI in experiment [1], in experiment [2], in experiment [3], in [4], in [5] and in experiment [7] was above 100 µM each time. Also, the TGI in experiment [8], in [9] and in experiment [12] was above 100 µM throughout.
For the molecule `O=C1NC(O)n2c(=O)[nH]c(=O)n21` (centres undefined), the TGI in [1], in experiment [2], in [3], in [4], in [5] and in experiment [7] was above 100 µM each time. Further, the TGI in experiment [8], in experiment [9] and in [12] was above 100 µM each time.
As to `C[C@@H]1C[C@@H]([C@H](O)CC2CC(=O)NC(=O)C2)C(=O)[C@@H](C)C1`, the TGI in experiment [1] was 3.48 µM; in experiment [2], 2.67 µM and 12.6 µM; in [3] it was 21.5 µM; in experiment [4], 1.98 µM; in [5] it was 4.93 µM and 1.43 µM; in experiment [6], 9.16 µM. The TGI in experiment [7] is 5.31 µM and 12.2 µM; in experiment [9] it was 2.8 µM and 1.6 µM; in experiment [10], 4.51 µM; in experiment [11] it was 4.09 µM; in experiment [12], 11.1 µM. The GI50 in experiment [2] was 0.237 µM; in [5], 0.333 µM; in experiment [6] it was 0.358 µM; in [7] it was 0.275 µM; in experiment [8], 0.215 µM; in experiment [9], 0.248 µM. Further, the GI50 in [10] is 0.243 µM; in [11] it was 0.233 µM.
